Drawing on PubChem BioAssay (NCI), this text covers TGI and GI50 for 23 molecules.

Some test systems named below: SNB-19 CNS; OVCAR-5 ovarian; EKVX NSCLC; KM20L2 colon; SK-MEL-5 melanoma; T-47D breast; HT29 colon; K-562 leukemia; SF-295 CNS; HL-60(TB) leukemia.
Assay in all cases: NCI anticancer screen, dose series, 48 h

Values joined by “and” are separate entries in the source; they are usually repeats but may differ in a detail not shown here. Equal values may be shown once.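 All cell lines were grown in 96-well plates and treated with compound for 48 hours. GI50: concentration for 50% inhibition of growth. Definition used: TGI = concentration required for complete inhibition of growth.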

In the case of `CC(=O)OCc1cc2c(s1)C(=O)c1sccc1C2=O`, the TGI was determined as 0.317 µM in the experiment with SNB-19 CNS; 0.332 µM with OVCAR-5 ovarian; 0.36 µM in the experiment with EKVX NSCLC; 5.49 µM in the experiment on KM20L2 colon; 0.0569 µM in the experiment on SK-MEL-5 melanoma; 0.882 µM in the experiment on T-47D breast. Besides, the TGI is 1.43 µM in the experiment with HT29 colon, above 100 µM in the experiment with K-562 leukemia and 0.162 µM in the experiment on SF-295 CNS.

`NS(=O)(=O)c1cc2c(cc1Cl)NC(C(=O)NNC(=O)c1ccncc1)=NS2(=O)=O`: the TGI in the experiment on SNB-19 CNS, in the experiment with EKVX NSCLC, with KM20L2 colon, in the experiment on HL-60(TB) leukemia, in the experiment with SK-MEL-5 melanoma and in the experiment with HT29 colon was above 100 µM throughout. The TGI in the experiment on SF-295 CNS is above 100 µM.

For `COC(=O)c1ccccc1NCc1cc(O)ccc1O`, the TGI in the experiment on SNB-19 CNS is above 74.1 µM; in the experiment with OVCAR-5 ovarian, above 62.1 µM; with EKVX NSCLC it was above 68.1 µM; in the experiment with KM20L2 colon, above 100 µM; in the experiment on HL-60(TB) leukemia, above 42.8 µM; with SK-MEL-5 melanoma, 38.9 µM. In addition, the TGI was 31.8 µM in the experiment on T-47D breast, 44.2 µM in the experiment with HT29 colon, above 59 µM with K-562 leukemia and 33.3 µM with SF-295 CNS.

In the case of `COC1=C(C)C(=O)C2=C(C1=O)C1C3CC4=C(C(=O)C(OC)=C(C)C4=O)C(CNC(=O)C(C)=O)N3C(C#N)C(C2)N1C` (stereo not given), the TGI was 1.45 µM and 0.958 µM in the experiment with SNB-19 CNS; 0.0768 µM and 0.0776 µM in the experiment on OVCAR-5 ovarian; 0.246 µM and 1.03 µM in the experiment with KM20L2 colon; 0.00608 µM with T-47D breast; 0.253 µM and 0.383 µM in the experiment on SF-295 CNS. Also, the GI50 was 0.00267 µM with KM20L2 colon, 0.000553 µM with T-47D breast and 0.000966 µM with SF-295 CNS.

On to `CCCCCCCCCCCC1=C(O)C(=O)C=C(O)C1=O`, for which the TGI in the experiment on SNB-19 CNS came out at 25.7 µM; in the experiment on OVCAR-5 ovarian, 24.3 µM; with EKVX NSCLC, 15.6 µM; in the experiment with KM20L2 colon, 35.4 µM; with HL-60(TB) leukemia, 12.6 µM; in the experiment on SK-MEL-5 melanoma, 10.4 µM. Further, the TGI came to 50.2 µM in the experiment with HT29 colon, 75.9 µM with K-562 leukemia and 17.4 µM in the experiment with SF-295 CNS.

For `CCOC(=O)c1c(SCCN(CC)CC)n(-c2ccccc2)c(=S)n(-c2ccccc2)c1=O`, the TGI with SNB-19 CNS is 31.9 µM; in the experiment with OVCAR-5 ovarian, above 57.6 µM; in the experiment on EKVX NSCLC, 24.8 µM; in the experiment on HL-60(TB) leukemia it was 3.61 µM; in the experiment with SK-MEL-5 melanoma it was 7.6 µM; with T-47D breast it was 15.3 µM. The TGI is 12.6 µM in the experiment with HT29 colon, 4.32 µM in the experiment on K-562 leukemia and above 100 µM in the experiment on SF-295 CNS.

With `CC1SCCc2nc3ccccc3n21` (stereo not given), the TGI in the experiment with SNB-19 CNS, with OVCAR-5 ovarian, with EKVX NSCLC, in the experiment with HL-60(TB) leukemia, with SK-MEL-5 melanoma and in the experiment on T-47D breast was above 100 µM in each case. The TGI in the experiment with HT29 colon, with K-562 leukemia and in the experiment on SF-295 CNS was above 100 µM throughout.

For the molecule `O=C(CCc1ccccc1)NCCc1ccc(O)c(O)c1`, the TGI was above 100 µM in the experiment on SNB-19 CNS; above 31.6 µM with OVCAR-5 ovarian; above 100 µM in the experiment on EKVX NSCLC; 14.3 µM in the experiment with HL-60(TB) leukemia; above 50.6 µM in the experiment with SK-MEL-5 melanoma; above 100 µM in the experiment on T-47D breast. Besides, the TGI was above 69.3 µM in the experiment with HT29 colon, 22.4 µM in the experiment with K-562 leukemia and above 94.9 µM with SF-295 CNS.

Consider `C/C(=C\CNc1ncnc2c1ncn2CCC#N)CO`, for which the TGI in the experiment on SNB-19 CNS, with OVCAR-5 ovarian, in the experiment with EKVX NSCLC, with HL-60(TB) leukemia, with SK-MEL-5 melanoma and in the experiment with T-47D breast was above 100 µM each time. Further, the TGI in the experiment with HT29 colon, with K-562 leukemia and in the experiment with SF-295 CNS was above 100 µM in each case.

As for `CO/C(N)=C(\C#N)N=Cc1cccs1`, the TGI is above 100 µM in the experiment with SNB-19 CNS; above 100 µM with OVCAR-5 ovarian; above 100 µM in the experiment with EKVX NSCLC; 65.4 µM in the experiment with HL-60(TB) leukemia; above 100 µM with SK-MEL-5 melanoma; above 100 µM in the experiment on T-47D breast. Besides, the TGI in the experiment on HT29 colon, with K-562 leukemia and with SF-295 CNS was above 100 µM throughout.

Turning to `COc1cc(COC(=O)NC(Cc2cccs2)C(=O)O)c([N+](=O)[O-])cc1OC` (stereo not given), the TGI with SNB-19 CNS, with OVCAR-5 ovarian, in the experiment with EKVX NSCLC, in the experiment on HL-60(TB) leukemia, with SK-MEL-5 melanoma and in the experiment with T-47D breast was above 100 µM each time. The TGI in the experiment with HT29 colon, in the experiment on K-562 leukemia and in the experiment with SF-295 CNS was above 100 µM each time.

In the case of `COC(=O)C1=C(C)C(=O)C2(CCCCCC2C(=O)OC)C1` (stereo not given), the TGI in the experiment with SNB-19 CNS, in the experiment with OVCAR-5 ovarian, in the experiment on EKVX NSCLC, with KM20L2 colon, in the experiment on HL-60(TB) leukemia and with SK-MEL-5 melanoma was above 100 µM in each case. Also, the TGI in the experiment with HT29 colon, in the experiment on K-562 leukemia and with SF-295 CNS was above 100 µM each time.

With `Nc1c(/C=C/c2cc3cc(C4=NCCN4)ccc3o2)[nH]c2cc(C3=NCCN3)ccc12`, the TGI in the experiment with SNB-19 CNS, with OVCAR-5 ovarian, with EKVX NSCLC, in the experiment on HL-60(TB) leukemia, with SK-MEL-5 melanoma and in the experiment with T-47D breast was above 100 µM in each case. Besides, the TGI with HT29 colon, with K-562 leukemia and in the experiment on SF-295 CNS was above 100 µM each time.

Consider `CCCCN1/C(=N/Nc2n[nH]c(=O)c3ccccc23)SCC1c1ccc(Cl)cc1` (stereo not given), for which the TGI in the experiment with SNB-19 CNS is 42 µM; with OVCAR-5 ovarian, 61 µM; in the experiment on EKVX NSCLC it was 41.2 µM; in the experiment with HL-60(TB) leukemia, above 100 µM; with SK-MEL-5 melanoma it was 14.3 µM; with T-47D breast it was above 100 µM. Besides, the figures for the TGI in the experiment with HT29 colon, in the experiment with K-562 leukemia and with SF-295 CNS were 96.1 µM, above 100 µM and 22.6 µM, respectively.

With `CCOP(=O)(OCC)/C(C#N)=C(\C)c1ccco1`, the TGI in the experiment with SNB-19 CNS, in the experiment on OVCAR-5 ovarian, in the experiment on EKVX NSCLC, with HL-60(TB) leukemia, with SK-MEL-5 melanoma and in the experiment on T-47D breast was above 10 µM throughout. The TGI in the experiment with HT29 colon, in the experiment on K-562 leukemia and in the experiment on SF-295 CNS was above 10 µM each time.

As for `COc1ccc(/[N+]([O-])=C/c2ccccc2OC(=S)S)cc1`, the TGI was above 100 µM with SNB-19 CNS; above 100 µM in the experiment on OVCAR-5 ovarian; above 100 µM with EKVX NSCLC; 70.8 µM in the experiment on HL-60(TB) leukemia; above 100 µM with SK-MEL-5 melanoma; above 100 µM in the experiment with T-47D breast. Also, the TGI in the experiment with HT29 colon is 49.7 µM; in the experiment with K-562 leukemia, above 100 µM; with SF-295 CNS it was above 100 µM.

Turning to `O=C1C[C@@]23CCC4(CC2=CCC[C@H]3O1)OCCO4`, the TGI with SNB-19 CNS, with OVCAR-5 ovarian, with EKVX NSCLC, in the experiment on HL-60(TB) leukemia, in the experiment with SK-MEL-5 melanoma and in the experiment with T-47D breast was above 100 µM throughout. Moreover, the TGI in the experiment with HT29 colon, with K-562 leukemia and in the experiment with SF-295 CNS was above 100 µM in each case.

As for `CCN(CC)CCCNc1nnc(C)c2[nH]c3ccccc3c12`, the TGI in the experiment with SNB-19 CNS was above 100 µM; in the experiment on OVCAR-5 ovarian it was 61.3 µM; with EKVX NSCLC, 63.4 µM; in the experiment on HL-60(TB) leukemia, 27.4 µM; in the experiment on SK-MEL-5 melanoma, 27.8 µM; in the experiment on T-47D breast, 68.9 µM. Also, the TGI is 56.1 µM with HT29 colon, above 100 µM in the experiment on K-562 leukemia and 62.5 µM in the experiment on SF-295 CNS.

On to `O=P1(C(O)c2ccccc2)N(Cc2ccccc2)[C@@H]2CCCC[C@H]2N1Cc1ccccc1` (stereo not given in full), for which the TGI was above 100 µM in the experiment with SNB-19 CNS; 76.8 µM in the experiment with OVCAR-5 ovarian; above 100 µM with EKVX NSCLC; 47.2 µM in the experiment with HL-60(TB) leukemia; above 100 µM with SK-MEL-5 melanoma; 85.6 µM in the experiment on T-47D breast. Further, the TGI is 46.3 µM in the experiment on HT29 colon, above 100 µM with K-562 leukemia and 56.6 µM in the experiment on SF-295 CNS.

Turning to `COc1cc(CC2C(=O)OCC2Cc2ccc(OC)c(OC)c2)ccc1O` (stereo not given), the TGI with SNB-19 CNS, in the experiment with OVCAR-5 ovarian, in the experiment on EKVX NSCLC, in the experiment with HL-60(TB) leukemia, with SK-MEL-5 melanoma and in the experiment with T-47D breast was above 100 µM each time. Besides, the TGI in the experiment with HT29 colon, in the experiment on K-562 leukemia and in the experiment with SF-295 CNS was above 100 µM throughout.

Consider `CC(=O)CC(=O)N1CCOC1=O`, for which the TGI in the experiment with SNB-19 CNS, with OVCAR-5 ovarian, in the experiment with EKVX NSCLC, in the experiment with HL-60(TB) leukemia, in the experiment with SK-MEL-5 melanoma and with T-47D breast was above 10 µM in each case. Besides, the TGI in the experiment with HT29 colon, in the experiment on K-562 leukemia and in the experiment on SF-295 CNS was above 10 µM in each case.

As for `CCc1n[nH]c(=O)n1-c1ccncc1`, the TGI in the experiment with SNB-19 CNS, in the experiment with OVCAR-5 ovarian, in the experiment on EKVX NSCLC, with HL-60(TB) leukemia, in the experiment with SK-MEL-5 melanoma and in the experiment on T-47D breast was above 100 µM each time. Moreover, the TGI in the experiment with HT29 colon, in the experiment on K-562 leukemia and with SF-295 CNS was above 100 µM each time.

`CC(C)(C)OC(=O)NCCCCC1NC(=O)[C@@H]2Cc3c([nH]c4ccccc34)C(c3ccccc3)N2C1=O` (stereo not given in full): the TGI with SNB-19 CNS is above 100 µM; with OVCAR-5 ovarian, above 100 µM; in the experiment with EKVX NSCLC, above 100 µM; in the experiment on HL-60(TB) leukemia it was 52.3 µM; in the experiment on SK-MEL-5 melanoma, 97.8 µM; in the experiment with T-47D breast, above 100 µM. In addition, the TGI was 87.5 µM in the experiment on HT29 colon, above 100 µM with K-562 leukemia and 45.4 µM with SF-295 CNS.
